The text below walks through data of patent US9200017B2, “Multimodal imaging of fibrin” (The General Hospital Corporation, priority 2009, dated 2015).

Experiment [1] concerns the target T1, Human fibrin (Homo sapiens, UniProt P02671+P02675+P02679).
T1 construct: thrombin cleaves fibrinopeptides on fibrinogen resulting in an end-to-end polymerization to give the polymer fibrin; Human fibrinogen (American Diagnostica) was dialyzed; purchased American Diagnostica
T1 sequence (P02671 36-629 limits assumed): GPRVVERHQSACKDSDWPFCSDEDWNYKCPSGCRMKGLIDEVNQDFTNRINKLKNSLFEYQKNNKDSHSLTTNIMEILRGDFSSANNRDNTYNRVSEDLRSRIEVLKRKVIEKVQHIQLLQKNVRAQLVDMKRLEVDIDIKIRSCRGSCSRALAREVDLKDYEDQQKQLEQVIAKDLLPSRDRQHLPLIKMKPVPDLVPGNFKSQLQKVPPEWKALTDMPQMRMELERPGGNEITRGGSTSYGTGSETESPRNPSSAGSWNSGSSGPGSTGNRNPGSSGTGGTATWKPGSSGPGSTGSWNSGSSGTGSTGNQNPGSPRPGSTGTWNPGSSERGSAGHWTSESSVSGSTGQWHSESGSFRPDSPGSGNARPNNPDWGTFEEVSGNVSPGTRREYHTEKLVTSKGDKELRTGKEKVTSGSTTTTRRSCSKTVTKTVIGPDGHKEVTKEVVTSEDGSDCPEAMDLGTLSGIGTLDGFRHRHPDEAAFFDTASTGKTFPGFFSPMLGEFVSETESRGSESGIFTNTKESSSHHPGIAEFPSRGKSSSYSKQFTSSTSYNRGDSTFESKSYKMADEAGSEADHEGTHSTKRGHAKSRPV
T1 sequence (P02675 45-491 limits assumed): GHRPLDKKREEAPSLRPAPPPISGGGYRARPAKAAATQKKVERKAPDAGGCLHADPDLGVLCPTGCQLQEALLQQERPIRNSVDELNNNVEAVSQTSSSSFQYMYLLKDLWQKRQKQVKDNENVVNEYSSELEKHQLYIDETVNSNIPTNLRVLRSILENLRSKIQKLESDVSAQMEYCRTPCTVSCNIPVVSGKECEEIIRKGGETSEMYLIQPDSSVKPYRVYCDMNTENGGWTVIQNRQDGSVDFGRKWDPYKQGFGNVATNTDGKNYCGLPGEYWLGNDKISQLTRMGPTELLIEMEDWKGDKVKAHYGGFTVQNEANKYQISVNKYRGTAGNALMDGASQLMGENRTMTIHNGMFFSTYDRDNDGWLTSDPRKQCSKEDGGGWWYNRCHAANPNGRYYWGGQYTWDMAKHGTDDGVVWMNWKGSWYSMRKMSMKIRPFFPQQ
T1 sequence (P02679 27-437 isoform P02679-2 limits assumed): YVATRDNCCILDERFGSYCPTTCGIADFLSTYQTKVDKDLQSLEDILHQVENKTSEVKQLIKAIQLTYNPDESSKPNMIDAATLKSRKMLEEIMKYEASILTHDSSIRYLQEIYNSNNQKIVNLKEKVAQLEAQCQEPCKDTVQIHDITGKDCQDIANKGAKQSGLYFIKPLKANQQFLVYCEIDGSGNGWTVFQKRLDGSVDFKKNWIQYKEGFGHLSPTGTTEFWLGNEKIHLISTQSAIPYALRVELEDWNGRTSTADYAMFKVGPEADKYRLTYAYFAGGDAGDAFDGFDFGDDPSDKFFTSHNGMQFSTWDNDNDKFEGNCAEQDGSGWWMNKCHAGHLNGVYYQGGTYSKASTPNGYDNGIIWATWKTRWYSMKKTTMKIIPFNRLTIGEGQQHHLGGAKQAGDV
The experiment in a line: Binding to human fibrin, dried fibrin microtiter plate, stoichiometric binding model. As to conditions: dried human fibrin about 2.5 mg/mL, compound 0.1 to 50 μM, 2 h; read-out: Kd, first binding event. As to the method:
Binding can also be assessed by a dried fibrin assay. Here, purified fibrinogen (2.5 mg/mL; 7 μM fibrin) is clotted with thrombin and dried to a thin film in wells of a microtiter plate. The resulting clots bind to the plate without loss of protein. The clots are rehydrated with buffer containing known concentrations of peptide. After incubation at 37° C. for 2 hr, the concentration of peptide in the supernatant ([peptide]free) is determined (e.g. by HPLC or if the peptide is labeled with a fluorophore by fluorescence, or if labeled by a radionuclide concentration is determined by radioactivity). The concentration of fibrin-bound peptide ([peptide]bound) is calculated by subtraction ([peptide]bound)=[peptide]total−[peptide]free). A dissociation constant (Kd) for fibrin binding can be determined by fitting a plot of [peptide]bound versus [peptide]free to either a stoichiometric (see e.g. Nair et al., Angew Chem Int Ed 2008 47:4918-21) or equivalent binding sites model (see e.g. Overoye-Chan et al. J Am Chem Soc 2008 130:6025-39). […]
Solutions of compound ranging from 0.1 to 50 μM were added to each of the wells of the dried fibrin microtiter plate, and the plate was shaken for 2 h. After incubation, solution was removed and the concentration of unbound compound was determined from its radioactivity or by ICP-MS. […]

Experiment [2] addresses T2, fibrin gel (Homo sapiens, UniProt P02671+P02675+P02679).
T2 construct: thrombin cleaves fibrinopeptides on fibrinogen resulting in an end-to-end polymerization to give the polymer fibrin; Fibrin is a fibrillar protein derived from the soluble plasma protein fibrinogen
T2 sequence (P02671 36-629 limits assumed): T1 sequence (P02671 36-629 limits assumed)
T2 sequence (P02675 45-491 limits assumed): T1 sequence (P02675 45-491 limits assumed)
T2 sequence (P02679 27-437 isoform P02679-2 limits assumed): T1 sequence (P02679 27-437 isoform P02679-2 limits assumed)
The experiment in a line: Phantom study with fluorescence imaging in fibrinogen solution and fibrin gel. The following applies: 50 nM in 2 mg/mL fibrin gel. As to the method:
A 10 mM solution of fluorescein was prepared in ethanol by adding 0.0113 g of fluorescein to 3 mL EtOH. This solution was diluted in water to prepare a 9.99 μM solution. Also, a dilute solution of GdDOTA-cyclic-FBP-p-XD-FITC was prepared with a final concentration of 8.55 μM. Four phantoms were prepared in 1 mL glass tubes. Each phantom contained fibrinogen at a final concentration of 2 mg/mL, 50 pmol of GdDOTA-cyclic-FBP-p-XD-FITC or fluorescein, at a total volume of 1 mL. In two of the phantoms, fibrin gels were prepared by adding CaCl2 and thrombin to a final concentration of 7 mM and 4 U/mL, respectively. Once the clots had formed, the mixture was centrifuged and the clots settled to the bottom. The 4 phantoms were labeled: A) GdDOTA-cyclic-FBP-p-XD-FITC in fgn; B) GdDOTA-cyclic-FBP-p-XD-FITC in fbn gel; C) fluorescein in fbn gel D) fluorescein in fgn. The phantoms were imaged with an IVIS Spectrum imager.

Experiment [3] has as its system fibrin gel. The experiment in a line: MR phantom study at 1.5 T in fibrinogen solution and fibrin gel. As to conditions: 25 μM Gd in 5 mg/mL fibrin gel, T1-weighted. The method, then:
Fibrinogen (fgn) (50 mg, American Diagnostica) was dissolved in 1 mL of TBS (50 mM Tris, 150 mM sodium chloride, pH 7.4) and was dialyzed against TBS with 5 mM sodium citrate. The concentration of the resulting fibrinogen solution was 8.8 mg/mL based on the absorbance at 280 nm where 1 mg/mL fgn has an optical density of 1.512 for a 1 cm path length. Solutions were prepared by diluting stock solutions of gadolinium probe and fgn to final solutions of 25 μM Gd and 5 mg/mL fgn. Gadolinium concentrations were determined by ICP-MS. Fibrin gels were prepared by adding CaCl2 and thrombin to a final concentration of 7 mM and 4 U/mL, respectively. After briefly mixing the CaCl2 and thrombin, the solutions were allowed to gel/clot for 30 minutes. After fibrin (fbn) formation was complete, the clots were pushed to the wall of the tube with a pipet tip. A total of 6×0.5 mL phantoms were prepared in 1 mL centrifuge tubes: A) pure water; B) 5 mg/mL fibrinogen; C) [Gd(HP-DO3A)] at 25 μM in 5 mg/mL fgn; D) [Gd(HP-DO3A)] at 25 μM in 5 mg/mL fbn gel; E) GdDOTA-cyclic-FBP-p-XD-FITC (compound 17) at 25 μM in 5 mg/mL fgn; F) GdDOTA-cyclic-FBP-p-XD-FITC (compound 17) at 25 μM in 5 mg/mL fbn gel.
All 6 phantoms were simultaneously imaged at room temperature at 1.5 T with a clinical MRI. T1-weighted gradient echo images were acquired with repetition time TR=9.2 ms, echo time TE=1.9 ms, flip angle=25°.

The target in experiment [4] is T2, fibrin gel. Put plainly: Phantom study with PET in fibrinogen solution and fibrin gel. The following applies: 2 mg/mL fibrin gel, 150 nCi, 2.3 nmol, 21° C. As to the method:
^64CuDOTA was prepared by reacting 200 μCi of ^64CuCl2 with DOTA ligand (50 nmol) in 200 μL water at pH 6.5. The pH of the solution was maintained at 6.5 and the reaction was stirred at 50° C. for 30 min. The solution was then passed through a cation-exchange resin. The resin was washed with water and the total final volume was 600 μL.
Six phantoms were prepared in 4 mL glass culture tubes. Each phantom contained fibrinogen (fgn) at a final concentration of 2 mg/mL, 2.3 nmol of peptide or DOTA, a total volume of 2 mL, and a total activity of 150 nCi. In 3 of the phantoms, Fibrin gels (fbn) were prepared by adding CaCl2 and thrombin to a final concentration of 7 mM and 4 U/mL, respectively. Once the clots had formed, the mixture was centrifuged and the clots settled to the bottom. […]
The 6 tubes were placed in a holder with each tube equidistant from the isocenter and PET data was collected for 15 minutes. […] Each of the 32 PET detector modules consists of six 12×12 LSO crystal arrays read out by a 3×3 array of APDs (Hamamatsu 8664-55, Japan). […] The emission data recorded in list-mode format were sorted in the line of response space and compressed axially in the sinogram space for fast reconstruction. The normalization was calculated from a 64-hour scan of a plane-source rotated in the FOV. […]

Positions of bridges follow the written chain, without caps; N, C: chain ends. Non-standard residues stand in square brackets, D forms with d. Residues, ends and D or L forms follow the SMILES beside them. *: point of attachment. DOTA(p-xylylenediamine) = O=C(O)CN1CCN(CC(=O)O)CCN(CC(=O)NCc2ccc(CN*)cc2)CCN(CC(=O)O)CC1; X1 = O=C1OC2(c3ccc(O)cc3Oc3cc(O)ccc32)c2ccc(NC(=S)NCc3ccc(CN*)cc3)cc21; FITC = O=C1OC2(c3ccc(O)cc3Oc3cc(O)ccc32)c2ccc(NC(=S)*)cc21; DOTA = O=C(O)CN1CCN(CC(=O)O)CCN(CC(=O)*)CCN(CC(=O)O)CC1; Tyr(3-Cl) = N[C@@H](Cc1ccc(O)c(Cl)c1)C(=O)O; Hyp = O=C(O)[C@@H]1C[C@@H](O)CN1; Ahx = NCCCCCC(=O)O

A word on the Kd: it is the equilibrium constant for the complex coming apart. On to `CC[C@H](C)[C@H](NC(=O)[C@H](Cc1ccc(O)cc1)NC(=O)[C@@H]1CSSC[C@H](NC(=O)[C@@H](CCC(=O)O)NC(=O)[C@H](Cc2ccc(O)cc2)NC(=O)CCCCCNC(=S)Nc2ccc3c(c2)C(=O)OC32c3ccc(O)cc3Oc3cc(O)ccc32)C(=O)N2C[C@H](O)C[C@H]2C(=O)N[C@@H](Cc2ccc(O)c(Cl)c2)C(=O)NCC(=O)N[C@@H](CC(C)C)C(=O)N1)C(=O)N[C@@H](CCC(N)=O)C(=O)NCc1ccc(CNC(=O)CN2CCN(CC(=O)O)CCN(CC(=O)O)CCN(CC(=O)O)CC2)cc1` [Compound 11, FITC-hexyl-cyclic-FBP-p-XD-DOTA-Gd] ({FITC-Ahx}-Y[dE]C[Hyp][Tyr(3-Cl)]GLCYIQ-{DOTA(p-xylylenediamine)}; disulfide 3-8), for which, in experiment [1], the Kd was determined as 900 ± 300 nM.

For the compound `CC[C@H](C)[C@H](NC(=O)[C@H](Cc1ccc(O)cc1)NC(=O)[C@@H]1CSSC[C@H](NC(=O)[C@@H](CCC(=O)O)NC(=O)[C@H](Cc2ccc(O)cc2)NC(=O)CN2CCN(CC(=O)O)CCN(CC(=O)O)CCN(CC(=O)O)CC2)C(=O)N2C[C@H](O)C[C@H]2C(=O)N[C@@H](Cc2ccc(O)c(Cl)c2)C(=O)NCC(=O)N[C@@H](CC(C)C)C(=O)N1)C(=O)N[C@@H](CCC(N)=O)C(=O)NCc1ccc(CNC(=S)Nc2ccc3c(c2)C(=O)OC32c3ccc(O)cc3Oc3cc(O)ccc32)cc1` [Compound 17, GdDOTA-cyclic-FBP-p-XD-FITC] ({DOTA}-Y[dE]C[Hyp][Tyr(3-Cl)]GLCYIQ-X1; disulfide 3-8), the Kd in experiment [1] was determined as 800 ± 300 nM. For the same compound, in experiment [2], the “Fluorescence intensity distribution between fibrin clot and liquid” value was “localizes in the fibrin clot”. For the same compound, in experiment [3], the “MR signal distribution between clotted fibrin and supernatant” value is on record as “binding to the fibrin”. With `CC(O)CN1CCN(CC(=O)[O-])CCN(CC(=O)[O-])CCN(CC(=O)[O-])CC1.[Gd+3]` (stereo not drawn) [GdHP-DO3A, reference compound], the “MR signal distribution between clotted fibrin and supernatant” value in experiment [3] is “distributed equally between the clotted fibrin and the supernatant”. In the case of `O=C([O-])CN1CCN(CC(=O)O)CCN(CC(=O)[O-])CCN(CC(=O)O)CC1.[64Cu+2]` [^64CuDOTA], in experiment [4], the “PET activity distribution between fibrin clot and liquid above the clot” value was “distributed equally in the clot (bottom of tube B) and in the liquid above the clot”.
